Source: US8637550B2, “Heteroaryl diamide compounds useful as MMP-13 inhibitors” (Boehringer Ingelheim International GmbH, priority 2008, dated 2014)
Where “and” joins values, the source holds several entries; their conditions need not be identical. Equal entries are not always repeated.

These compounds were tested against MMP-13 (Homo sapiens, UniProt P45452) (assay: EnzoLyte 520 Generic MMP Assay Kit, 5-FAM/QXL520 FRET peptide substrate).
Type: biochemical
Text: The EnzoLyte™ 520 Generic MMP Assay Kit (AnaSpec Inc.) can detect the activity of several MMPs including MMP-1, 2, 3, 7, 8, 9, 13, and 14. This kit uses a 5-FAM/QXL™520 fluorescence resonance energy transfer (FRET) peptide as an MMP substrate.

| IC50 | Compound |
| --- | --- |
| 6 nM | CNC(=O)[C@@H](NC(=O)c1ccc(-c2ccc(OCc3cc(C)nn3C)cc2)o1)C1CCCCC1 [5-[4-(2,5-Dimethyl-2H-pyrazol-3-ylmethoxy)-phenyl]-furan-2-carboxylic acid ((S)-cyclohexyl-methylcarbamoyl-methyl)-amide] |
| 215 nM | CNC(=O)[C@@H](NC(=O)c1ccc(-c2cccc(CNC(=O)c3ccc(F)c(C(F)(F)F)c3)c2)o1)C(C)C [5-{3-[(3-Trifluoromethyl-4-fluoro-benzoylamino)-methyl]-phenyl}-furan-2-carboxylic acid ((S)-2-methyl-1-methylcarbamoyl-propyl)-amide] |
| 373 nM | CNC(=O)[C@@H](NC(=O)c1ccc(-c2ccc(-c3ccc(C(F)(F)F)cc3)cc2)o1)C1CCCCC1 [5-(4′-Trifluoromethyl-biphenyl-4-yl)-furan-2-carboxylic acid ((S)-cyclohexyl-methylcarbamoyl-methyl)-amide] |
| 380 nM | CNC(=O)[C@@H](NC(=O)c1ccc(-c2cccc(CNC(=O)[C@@H]3CCCN3C)c2)o1)C(C)C [1-methyl-N-[3-(5-{[(1S)-2-methyl-1-(methylcarbamoyl)propyl]carbamoyl}-2-furyl)benzyl]-L-prolinamide] |
| 3 nM | CNC(=O)[C@@H](NC(=O)c1ccc(-c2ccc(OCc3ccncc3C)cn2)o1)C1CCCCC1 [N-[(1S)-1-cyclohexyl-2-(methylamino)-2-oxoethyl]-5-{5-[(3-methylpyridin-4-yl)methoxy]pyridin-2-yl}furan-2-carboxamide] |
| 6 nM | CNC(=O)[C@@H](NC(=O)c1ccc(-c2ccc(OCc3cc4ccccc4o3)cn2)o1)C1CCCCC1 [5-[5-(1-Benzofuran-2-ylmethoxy)pyridin-2-yl]-N-[(1S)-1-cyclohexyl-2-(methylamino)-2-oxoethyl]furan-2-carboxamide] |
| 313 nM | CNC(=O)[C@@H](NC(=O)c1ccc(-c2cccc(CNC(=O)c3nccn3C)c2)o1)C1CCCCC1 [N-[3-(5-{[(1S)-1-cyclohexyl-2-(methylamino)-2-oxoethyl]carbamoyl}furan-2-yl)benzyl]-1-methyl-1H-imidazole-2-carboxamide] |
| 32 nM | CNC(=O)[C@@H](NC(=O)c1ccc(-c2cccc(CNC(=O)c3cnccn3)c2)o1)C(C)C [N-[3-(5-{[(1S)-2-methyl-1-(methylcarbamoyl)propyl]carbamoyl}-2-furyl)benzyl]pyrazine-2-carboxamide] |
| 415 nM | CNC(=O)[C@@H](NC(=O)c1ccc(-c2cccc(CN)c2)o1)C1CCOCC1 [5-[3-(Aminomethyl)phenyl]-N-[(1S)-2-(methylamino)-2-oxo-1-(tetrahydro-2H-pyran-4-yl)ethyl]-2-furamide] |
| 240 nM | CNC(=O)[C@@H](NC(=O)c1ccc(-c2cccc(CNC(=O)OCC(C)C)c2)o1)C1CCCCC1 [2-Methylpropyl [3-(5-{[(1S)-1-cyclohexyl-2-(methylamino)-2-oxoethyl]carbamoyl}furan-2-yl)benzyl]carbamate] |
| 420 nM | CNC(=O)[C@@H](NC(=O)c1ccc(-c2cccc(CNC(=O)c3cccnn3)c2)o1)C(C)C [N-[3-(5-{[(1S)-2-methyl-1-(methylcarbamoyl)propyl]carbamoyl}-2-furyl)benzyl]pyridazine-3-carboxamide] |
| 337 nM | CNC(=O)[C@@H](NC(=O)c1ccc(-c2cccc(CNC(=O)C3CCOCC3)c2)o1)C(C)C [N-[3-(5-{[(1S)-2-methyl-1-(methylcarbamoyl)propyl]carbamoyl}-2-furyl)benzyl]tetrahydro-2H-pyran-4-carboxamide] |
| 180 nM | CNC(=O)[C@@H](NC(=O)c1ccc(-c2cccc(CNC(=O)c3ccnnc3)c2)o1)C(C)C [N-[3-(5-{[(1S)-2-methyl-1-(methylcarbamoyl)propyl]carbamoyl}-2-furyl)benzyl]pyridazine-4-carboxamide] |
| 370 nM | CNC(=O)[C@@H](NC(=O)c1ccc(-c2cccc(CNC(=O)C3CNCCO3)c2)o1)C(C)C (stereo partly drawn) [N-[3-(5-{[(1S)-2-methyl-1-(methylcarbamoyl)propyl]carbamoyl}-2-furyl)benzyl]morpholine-2-carboxamide] |
| 305 nM | CNC(=O)[C@@H](NC(=O)c1ccc(-c2cccc(CNC(=O)C3CCCN3)c2)o1)C(C)C (stereo partly drawn) [N-[3-(5-{[(1S)-2-methyl-1-(methylcarbamoy)propyl]carbamoyl}-2-furyl)benzyl]prolinamide] |
| 465 nM | CNC(=O)[C@@H](NC(=O)c1ccc(-c2ccc(Cl)cc2)o1)C1CCCC1 [5-(4-Chlorophenyl)-N-[(1S)-1-cyclopentyl-2-(methylamino)-2-oxoethyl]furan-2-carboxamide] |
| 160 nM | CNC(=O)[C@@H](NC(=O)c1ccc(-c2cccc(CNC(=O)c3cc(C(F)(F)F)n[nH]3)c2)o1)C(C)C [5-Trifluoromethyl-2H-pyrazole-3-carboxylic acid 3-[5-((S)-2-methyl-1-methylcarbamoyl-propylcarbamoyl)-furan-2-yl]-benzylamide] |
| 14 nM | CNC(=O)[C@@H](NC(=O)c1ccc(-c2ccc(NC(=O)c3cccc(C)n3)cc2)o1)C(C)C [6-Methyl-N-[4-(5-{[(2S)-3-methyl-1-(methylamino)-1-oxobutan-2-yl]carbamoyl}furan-2-yl)phenyl]pyridine-2-carboxamide] |

| IC50 | Compound |
| --- | --- |
| 480 nM | CNC(=O)[C@@H](NC(=O)c1ccc(-c2ccc(S(=O)(=O)NC)cc2)o1)C1CCCCC1 [N-[(1S)-1-cyclohexyl-2-(methylamino)-2-oxoethyl]-5-[4-(methylsulfamoyl)phenyl]furan-2-carboxamide] |
| 22 nM | CNC(=O)[C@@H](NC(=O)c1ccc(-c2ccc(-c3ccc(C#N)cc3)cn2)o1)C(C)C [5-[5-(4-Cyano-phenyl)-pyridin-2-yl]-furan-2-carboxylic acid ((S)-2-methyl-1-methylcarbamoyl-propyl)-amide] |
| 50 nM | CNC(=O)[C@@H](NC(=O)c1ccc(-c2cccc(CNC(=O)c3cc(C)c(C)s3)c2)o1)C1CCCCC1 [N-[(1S)-1-cyclohexyl-2-(methylamino)-2-oxoethyl]-5-[3-({[(4,5-dimethylthiophen-2-yl)carbonyl]amino}methyl)phenyl]furan-2-carboxamide] |
| 99 nM | CNC(=O)[C@@H](NC(=O)c1ccc(-c2ccc(NC(=O)c3cn4cccc(C)c4n3)cc2)o1)C1CCCCC1 [N-[4-(5-{[(1S)-1-cyclohexyl-2-(methylamino)-2-oxoethyl]carbamoyl}furan-2-yl)phenyl]-8-methylimidazo[1,2-a]pyridine-2-carboxamide] |
| 14 nM | CNC(=O)[C@@H](NC(=O)c1ccc(-c2cccc(CNC(=O)c3ccn(C(F)F)n3)c2)o1)C(C)C [1-Difluoromethyl-1H-pyrazole-3-carboxylic acid 3-[5-((S)-2-methyl-1-methylcarbamoyl-propylcarbamoyl)-furan-2-yl]-benzylamide] |
| 470 nM | CNC(=O)[C@@H](NC(=O)c1ccc(-c2ccc([N+](=O)[O-])cc2)o1)C1CCCCC1 [N-[(1S)-1-cyclohexyl-2-(methylamino)-2-oxoethyl)-5-(4-nitrophenyl)furan-2-carboxamide] |
| 8 nM | CNC(=O)[C@@H](NC(=O)c1ccc(-c2cccc(CNC(=O)c3cc4ccccc4o3)c2)o1)C(C)C [N-[3-(5-{[(1S)-2-methyl-1-(methylcarbamoyl)propyl]carbamoyl}-2-furyl)benzyl]-1-benzofuran-2-carboxamide] |
| 475 nM | CNC(=O)[C@@H](NC(=O)c1ccc(-c2ccc(Cl)cc2)o1)C1CCCCC1 [5-(4-chlorophenyl)-N-[(1S)-1-cyclohexyl-2-(methylamino)-2-oxoethyl]furan-2-carboxamide] |
| 140 nM | CNC(=O)[C@@H](NC(=O)c1ccc(-c2ccc(-c3cccnc3)cn2)o1)C(C)C [5-[3,3′]Bipyridinyl-6-yl-furan-2-carboxylic acid ((S)-2-methyl-1-methylcarbamoyl-propyl)-amide] |
| 380 nM | CC[C@H](C)[C@H](NC(=O)c1csc(-c2ccc(Cl)cc2)n1)C(=O)NC [2-(4-Chloro-phenyl)-thiazole-4-carboxylic acid ((1S,2S)-2-methyl-1-methylcarbamoyl-butyl)-amide] |
| 295 nM | CNC(=O)[C@@H](NC(=O)c1ccc(-c2ccc(O[C@@H](C)c3ccccc3)cn2)o1)C1CCCCC1 [N-[(1S)-1-cyclohexyl-2-(methylamino)-2-oxoethyl]-5-{5-[(1S)-1-phenylethoxy]pyridin-2-yl}furan-2-carboxamide] |
| 41 nM and 73 nM | CNC(=O)[C@@H](NC(=O)c1ccc(-c2ccc(O[C@H](C)c3ccccc3)cn2)o1)C1CCCCC1 [N-[(1S)-1-cyclohexyl-2-(methylamino)-2-oxoethyl]-5-{5-[(1R)-1-phenylethoxy]pyridin-2-yl}furan-2-carboxamide] |
| 7 nM | CNC(=O)[C@@H](NC(=O)c1ccc(-c2ccc(NC(=O)c3cccc(C)n3)cn2)o1)C1CCCCC1 [N-[6-(5-{[(1S)-1-cyclohexyl-2-(methylamino)-2-oxoethyl]carbamoyl}furan-2-yl)pyridin-3-yl]-6-methylpyridine-2-carboxamide] |
| 23 nM | Cc1cccc(C(=O)Nc2ccc(-c3ccc(C(=O)N[C@H](C(=O)NC[C@H](C)O)C4CCCCC4)o3)cc2)n1 [N-[4-(5-{[(1S)-1-cyclohexyl-2-{[(2S)-2-hydroxypropyl]amino}-2-oxoethyl]carbamoyl}furan-2-yl)phenyl]-6-methylpyridine-2-carboxamide] |
| 62 nM | CNC(=O)[C@@H](NC(=O)c1ccc(-c2ccc(-c3ccncc3)cn2)o1)C(C)C [5-[3,4′]Bipyridinyl-6-yl-furan-2-carboxylic acid ((S)-2-methyl-1-methylcarbamoyl-propyl)-amide] |
| 415 nM | CNC(=O)[C@@H](NC(=O)c1ccc(-c2ccc(OCc3[nH]cnc3C)cn2)o1)C1CCOCC1 [5-[5-(5-Methyl-3H-imidazol-4-ylmethoxy)-pyridin-2-yl]-furan-2-carboxylic acid [(S)-methylcarbamoyl-(tetrahydro-pyran-4-yl)-methyl]-amide] |
| 1 nM | CNC(=O)[C@@H](NC(=O)c1ccc(-c2ccc(OCc3ccnc(C)c3)cn2)o1)C1CCCCC1 [N-[(1S)-1-cyclohexyl-2-(methylamino)-2-oxoethyl]-5-{5-[(2-methylpyridin-4-yl)methoxy]pyridin-2-yl}furan-2-carboxamide] |
